Our source for the GI50 and TGI values is PubChem BioAssay (NCI).

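Each compound was tested at five concentrations against cells in 96-well plates for 48 hours. GI50: concentration for 50% inhibition of growth. TGI: concentration producing complete growth inhibition.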

Some test systems named below: SF-295 CNS; SR leukemia; A549 NSCLC; NCI-H23 lung; LOX IMVI melanoma; HCT-116 colon; RXF 393 renal; U251 CNS; CCRF-CEM leukemia; MALME-3M melanoma.
Holding throughout (assay): inhibition of tumour cell growth, NCI panel, 48 h

Take `CCC[C@H](Nc1nc(-c2ccc(NC(=O)NCC)c(OC)c2)ncc1C)c1cccnc1`: the GI50 in the assay on SF-295 CNS is 0.0253 µM; in the assay on SR leukemia it was 0.03 µM; in the assay with A549 NSCLC, 0.0378 µM; with NCI-H23 lung, 0.0444 µM; with LOX IMVI melanoma, 0.0415 µM; with HCT-116 colon, 0.0349 µM. The GI50 was 0.0415 µM in the assay on RXF 393 renal, 0.0395 µM with U251 CNS, 0.032 µM in the assay with CCRF-CEM leukemia and 13.8 µM with MALME-3M melanoma. Besides, the TGI in the assay with SF-295 CNS was 0.0678 µM; in the assay on SR leukemia, 1.71 µM; in the assay on A549 NSCLC, greater than 36.2 µM; in the assay on NCI-H23 lung, 6.93 µM; with LOX IMVI melanoma, 13.8 µM; in the assay with HCT-116 colon, 10.5 µM. Also, the TGI with RXF 393 renal amounted to 20 µM; in the assay on U251 CNS, 17.7 µM; in the assay with MALME-3M melanoma, 49.1 µM.

Regarding `O=C(CSc1nc2sc3c(c2c(=O)n1-c1ccccc1)CCCCC3)N/N=C/c1ccc(F)cc1`, the GI50 with SF-295 CNS was 3.8 µM; in the assay with SR leukemia it was 0.357 µM; in the assay on A549 NSCLC, 2.48 µM; with NCI-H23 lung it was 3.29 µM; in the assay on LOX IMVI melanoma, 2.35 µM; in the assay with HCT-116 colon, 2.34 µM. The GI50 was 2.39 µM with RXF 393 renal, 1.93 µM in the assay with U251 CNS, 3.16 µM with CCRF-CEM leukemia and 1.67 µM in the assay on MALME-3M melanoma. Also, the TGI was found to be 14.7 µM in the assay on SF-295 CNS; 6.17 µM in the assay with SR leukemia; 10.8 µM in the assay with A549 NSCLC; 13.9 µM in the assay on NCI-H23 lung; 14.8 µM in the assay with LOX IMVI melanoma; 12 µM in the assay with HCT-116 colon. The TGI was 7.18 µM with RXF 393 renal, 5.31 µM with U251 CNS, greater than 100 µM in the assay on CCRF-CEM leukemia and 5.86 µM with MALME-3M melanoma.

Regarding `C/C=C/C/C=C/CCC(=O)C1OC1C(N)=O` (centres undefined), the TGI in the assay on SF-295 CNS was 30 µM; in the assay on SR leukemia, 50.5 µM; in the assay on A549 NSCLC, 56 µM; with NCI-H23 lung it was 28.2 µM; in the assay on LOX IMVI melanoma, 26.6 µM; in the assay on HCT-116 colon it was 28.2 µM. In addition, the TGI with RXF 393 renal is 21.7 µM; in the assay with U251 CNS, 30.7 µM; in the assay on CCRF-CEM leukemia it was 98.3 µM; in the assay with MALME-3M melanoma it was 32.9 µM.

Turning to `CC(=O)NC(Cc1c[nH]c2ccccc12)C(=O)O` (centres undefined), the TGI in the assay with SF-295 CNS, with SR leukemia, in the assay with A549 NSCLC, with NCI-H23 lung, in the assay on LOX IMVI melanoma and with HCT-116 colon was greater than 100 µM each time. Moreover, the TGI in the assay with RXF 393 renal, in the assay on U251 CNS, in the assay with CCRF-CEM leukemia and in the assay with MALME-3M melanoma was greater than 100 µM throughout.

As to `CC1CC(C)C(=O)C(C(=O)CC2CC(=O)NC2=O)C1` (centres undefined), the TGI with SF-295 CNS, in the assay with SR leukemia, with A549 NSCLC, with NCI-H23 lung, in the assay with LOX IMVI melanoma and in the assay on HCT-116 colon was greater than 100 µM throughout. Moreover, the TGI with RXF 393 renal, in the assay on U251 CNS, in the assay with CCRF-CEM leukemia and in the assay with MALME-3M melanoma was greater than 100 µM in each case.

Consider `Nc1c(C(=O)Nc2cccc3ccccc23)sc2nc3c(cc12)CCCCC3`, for which the GI50 in the assay on SF-295 CNS was 0.421 µM; in the assay on SR leukemia, 0.214 µM; in the assay on A549 NSCLC, 1.9 µM; in the assay with NCI-H23 lung, 1.78 µM; in the assay on LOX IMVI melanoma, 0.909 µM; in the assay on HCT-116 colon it was 0.407 µM. Besides, the GI50 in the assay with RXF 393 renal is 0.992 µM; with U251 CNS, 0.998 µM; in the assay on CCRF-CEM leukemia it was 0.692 µM; in the assay on MALME-3M melanoma, 31.9 µM. In addition, the TGI in the assay on SF-295 CNS, with SR leukemia, in the assay with A549 NSCLC, in the assay with NCI-H23 lung, in the assay on LOX IMVI melanoma and in the assay with HCT-116 colon was greater than 50 µM throughout. The TGI with RXF 393 renal, in the assay with U251 CNS, with CCRF-CEM leukemia and with MALME-3M melanoma was greater than 50 µM in each case.

For `C[C@@H](Oc1cc(-c2cnn(C3CC4(CCNCC4)C3)c2)cnc1N)c1c(F)ccc(Cl)c1Cl`, the GI50 with SF-295 CNS is 0.612 µM; in the assay on SR leukemia it was 0.0467 µM; in the assay with A549 NSCLC, 1.04 µM; in the assay on NCI-H23 lung it was 1.09 µM; in the assay with LOX IMVI melanoma, 1.22 µM; in the assay with HCT-116 colon, 0.671 µM. Further, the GI50 in the assay on RXF 393 renal is 1.35 µM; in the assay on U251 CNS it was 1.6 µM; with CCRF-CEM leukemia, 1.31 µM; in the assay on MALME-3M melanoma, 1.29 µM. Further, the TGI in the assay with SF-295 CNS turned out to be 2.43 µM; with SR leukemia it was 1.53 µM; with A549 NSCLC, 3.63 µM; with NCI-H23 lung it was 11.4 µM; in the assay with LOX IMVI melanoma, 2.56 µM; in the assay on HCT-116 colon it was 2.65 µM. Moreover, the TGI with RXF 393 renal turned out to be 2.73 µM; in the assay with U251 CNS, 3.92 µM; in the assay with CCRF-CEM leukemia, 6.31 µM; in the assay on MALME-3M melanoma, 3.02 µM.

Turning to `Fc1ccc(Nc2ccc3cc(OCCCN4CCOCC4)ccc3n2)cc1F`, the GI50 was 1.89 µM in the assay on SF-295 CNS; 2.03 µM in the assay with SR leukemia; 5.36 µM in the assay with A549 NSCLC; 3.93 µM in the assay on NCI-H23 lung; 1.6 µM in the assay with LOX IMVI melanoma; 4.5 µM in the assay with HCT-116 colon. The GI50 in the assay on RXF 393 renal was 2.45 µM; with U251 CNS, 2.92 µM; in the assay on CCRF-CEM leukemia, 7.93 µM; in the assay with MALME-3M melanoma, 2.25 µM. For the same compound, the TGI is 4.3 µM in the assay on SF-295 CNS; 32.8 µM in the assay with SR leukemia; greater than 100 µM with A549 NSCLC; greater than 100 µM with NCI-H23 lung; 3.09 µM in the assay with LOX IMVI melanoma; greater than 100 µM in the assay with HCT-116 colon. Besides, the TGI with RXF 393 renal was 7.32 µM; with U251 CNS it was 7.79 µM; in the assay on CCRF-CEM leukemia, greater than 100 µM; in the assay with MALME-3M melanoma, 7.74 µM.
